# What was measured:
# [1] = Inhibition of BRD4 in mouse primary skin-derived precursors (Nf1-/-, P53-/-) assessed as reduction in cell viability incubated for 72 hrs by SRB assay
# [2] = Inhibition of BRD4 in mouse MPNST cells assessed as reduction in cell viability incubated for 72 hrs by SRB assay
structure (smiles),measurement,setting,value
Cc1sc2c(c1C)C(c1ccc(Cl)cc1)=N[C@@H](CC(=O)OC(C)(C)C)c1nnc(C)n1-2,IC50,[1],< 400 nM
same,IC50,[2],< 400 nM

# From BindingDB's records for PubMed 28813519 (Erasmus University Medical Center)
